Data as given in patent US20220315895A1, “METHODS OF MAKING OLIGOPOTENT AND UNIPOTENT PRECURSORS” (Transfusion Health, LLC, priority 2019, published 2022).

Assays:
[1] = tested on: expanded cord blood CD34+ cells, lymphoid progenitors; experiment: Lymphoid Progenitor Differentiation Culture after Expansion Culture (Example 41); type: cell-based, human; conditions: for Fold Enhancement (vs. unexpanded) of CD10+ lineage output: 14 days Lymphoid Differentiation Culture
Excerpt: Lymphoid Progenitor Differentiation Cultures (L Diff Cultures) were initiated prior to culture in +Formula I (Day 1 L Diff Culture), following 14 days of culture in +Formula I (14-day +Formula I-expanded L Diff Culture), following 14 days of culture in control conditions (14-day DMSO-expanded L Diff Culture) or following 21 days of culture in +Formula I (21-day +Formula I-expanded L Diff Culture).
12-well non-TC-treated plates were coated with StemSpan Lymphoid Differentiation Coating Material (STEMCELL Technologies) by incubation for two hours at room temperature. Immediately prior to initiation of L Diff Culture, wells were washed with PBS.
Purified CD34+ cells were plated at 20,000 cells per well, in Lymphoid Progenitor Expansion Medium (“LPEM”), comprising StemSpan SFEM II medium (STEMCELL Technologies) with StemSpan Lymphoid Progenitor Expansion Supplement (STEMCELL Technologies). Cells were plated in duplicate, in 500 μl/well, then placed in a humidified incubator at atmospheric oxygen and 5% CO2. Exact cell numbers dispensed per well were quantified with flow cytometry for later calculations.
On days three or five, an additional 500 μl/well of LPEM was added, then on days seven and eleven, half of the media was removed and replaced with fresh LPEM.
At seven and fourteen days, cells were analyzed via flow cytometry to quantify lymphoid lineage phenotypes of CD7+/CD5−, CD5+/CD7− and CD7+/CD5+, as well as presence of maturing B cells (CD19+), T cells (CD3+) or NK cells (CD56+).
“Per-Assayed-CD34+ Cell Output” describes the output of differentiated cells per CD34+ cell placed into Differentiation Culture, and is calculated by dividing the Corrected Count of lineage-positive cells by the number of CD34+ cells placed into quantified at Differentiation Culture initiation following 1, 14, 28, 42 or 64 days in Expansion Culture.
“Scaled Output” (or Scaled Output per CD34+ cell) describes the number of differentiated cells of a given lineage that may be produced from a single CD34+ cell following both Expansion Cell Culture (if expanded) followed by Differentiation Culture. This quantity is calculated by multiplying Per-Assayed-CD34+ Cell Output by the Fold Expansion of CD34+ cells from day 1 to the day of Differentiation Culture initiation (day 14, 28, 42 or 64). This quantity is synonymous with “per-expanded-dl-CD34+ cell output” used in Example 38 above.
“Fold Enhancement (vs. unexpanded)” was calculated to fully capture the benefit of Expansion Culture in +Formula I Conditions prior to Differentiation Culture. This quantity was calculated by dividing the Scaled Output output of a given cell population by the Per-Assayed-CD34+ Cell Output of that population from unexpanded cells placed into differentiation culture, as in the equation below. Each fold increase was calculated relative to the same number of days in differentiation culture, e.g. the fold increase of cells differentiated for six days was calculated by dividing the scaled output of expanded cells differentiated for six days by the output of unexpanded cells differentiated for six days. In the case of cells differentiated for 14 days, an exact match in unexpanded cells was not available, so output at differentiation day 13 was used as a denominator.

[2] = tested on: CD15+ cells derived from cord blood CD34+ cells; experiment: Progenitor Differentiation and Maturation Cultures, CD15+ output (Example 42); type: cell-based, human
Excerpt: Progenitor Differentiation Cultures were initiated following 14, 28, 42 and 64 days of CD34 expansion culture. Differentiation Sequences were created by culturing cells in a series of Differentiation Medias, for six or seven days. Differentiation Medias were made with purified cytokines: SCF, G-CSF, GM-CSF, FLT3L, IL-3, IL-6, TPO (all from R&D Systems), prepared in either StemSpan SFEM I or RPMI+10% FBS, as indicated in Table 12A and Table 12B below. Approximately 5,000-10,000 CD34+ cells were seeded into the “Day 0 media” indicated in Table 13 in 12-well plates at the beginning of the Differentiation Culture. At day two or three, a portion of cells was seeded into the subsequent media in the Sequence. If media was to be changed to a different Differentiation Media at a given day, the cells were first placed into 15 mL conical tubes and centrifuged for 5 minutes at 300×g. All supernatant was removed prior to resuspension in new media and re-plating. At days 6 or 7, as indicated in Table 13 and Table 15, a portion of cells was analyzed. […]
A number of quantities were calculated to describe the output of Differentiation Culture and the combined effects of Expansion and Differentiation Culture. These quantities and their relationships are as described in Example 41 and depicted in FIG. 68.

[3] = 14 days in +Formula I Expansion Culture
[4] = 21 days in +Formula I Expansion Culture

CC(C)(C)C(=O)Nc1ccc2c(c1)C(O)c1ccccc1-2 (stereo not shown) [Compound 1.010]
Fold Enhancement (vs. unexpanded) of CD7+/CD5+ lineage output [1, 3]: 5.8 fold | Fold Enhancement (vs. unexpanded) of CD7+/CD5− lineage output [1, 3]: 6.3 fold | Fold Enhancement (vs. unexpanded) of CD7−/CD5+ lineage output [1, 3]: 11 fold | Fold Enhancement (vs. unexpanded) of CD10+ lineage output [1, 3]: 5 fold | Fold Enhancement (vs. unexpanded) of CD7+/CD5+ lineage output [1, 4]: 238 fold | Fold Enhancement (vs. unexpanded) of CD7+/CD5− lineage output [1, 4]: 46 fold | Fold Enhancement (vs. unexpanded) of CD7−/CD5+ lineage output [1, 4]: 180 fold | Fold Enhancement (vs. unexpanded) of CD10+ lineage output [1, 4]: 37 fold | fold increase of CD15+ cell output at days six or seven of Differentiation Culture ([2]; 64 days of CD34+ expansion in +Formula I conditions, condition TT): about 43,000 fold | CD15+ cells as percentage of total live cells ([2]; expanded in +Formula I conditions 14, 28 and 42 days, Medias A, B, C, H or T, by 6 to 7 days): > 47%
